Measured values published in patent US10202369B2, “1,3-thiazol-2-yl substituted benzamides” (BAYER AKTIENGESELLSCHAFT, priority 2014, dated 2019).

Legend:
[1] = In vitro metabolic stability in liver microsomes (calculated Fmax); format: in vitro ADME, human; conditions: 1 μM, calculated maximal oral bioavailability
Method: In Vitro Metabolic Stability Assays Determination of in vitro Metabolic Stability in Microsomes (Including Calculation of Hepatic in vivo Blood Clearance (CL) and of Maximal Oral Bioavailability (Fmax))
The metabolic assay was started shortly afterwards by adding the test compound to the incubation at a final volume of 1 mL. Organic solvent in the incubations was limited to ≤0.01% dimethylsulfoxide (DMSO) and ≤1% acetonitrile. […] Samples were frozen at −20° C. overnight, subsequently centrifuged for 15 minutes at 3000 rpm and the supernatant was analyzed with an Agilent 1200 HPLC-system with LCMS/MS detection.
The half-life of a test compound was determined from the concentration-time plot. From the half-life (kel: slope of concentration-time plot; half-life=In2/kel) the intrinsic clearances were calculated. Together with the additional parameters liver blood flow, specific liver weight and microsomal protein content the hepatic in vivo blood clearance (CL) and the maximal oral bioavailability (Fmax) were calculated for the different species.
(§1) Metabolic instability is often the main clearance mechanism of xenobiotica leading to a high CL and low bioavailability which may eventually result in a short half-life and a low exposure after oral administration. Thus, reducing the susceptibility of metabolic degradation usually leads to a more favourable pharmacokinetic profile. When using liver microsomes as incubation matrix main phase I metabolic reactions, typically oxidoreductive reactions by cytochrome P450 enzymes and flavin mono-oxygenases (FMO) and hydrolytic reactions by esterases/amidases/epoxidhydrolases, are described. When the incubation of the test compound is performed in a hepatocyte matrix all potential hepatic metabolic processes (phase I and phase II) are covered.

[2] = system: rat hepatocytes; assay: In vitro metabolic stability in rat hepatocytes (calculated Fmax); format: in vitro ADME, Han Wistar rats; conditions: 1 μM, calculated maximal oral bioavailability
Method: Determination of in Vitro Metabolic Stability in Rat Hepatocytes (Including Calculation of Hepatic in Vivo Blood Clearance (CL))
Hepatocytes from Han Wistar rats were isolated via a 2-step perfusion method. After perfusion, the liver was carefully removed from the rat: the liver capsule was opened and the hepatocytes were gently shaken out into a Petri dish with ice-cold Williams' medium E (WME). The resulting cell suspension was filtered through sterile gaze in 50 mL falcon tubes and centrifuged at 50×g for 3 min at room temperature. The cell pellet was resuspended in 30 mL WME and centrifuged through a Percoll® gradient for 2 times at 100×g. The hepatocytes were washed again with WME and resuspended in medium containing 5% FCS. Cell viability was determined by trypan blue exclusion. […] The test compound was added to a final concentration of 1 μM. […] Samples were frozen at −20° C. overnight, subsequently centrifuged for 15 minutes at 3000 rpm and the supernatant was analyzed with an Agilent 1200 HPLC-system with LCMS/MS detection.
The half-life of a test compound was determined from the concentration-time plot. From the half-life (kel: slope of concentration-time plot; half-life=In2/kel) the intrinsic clearances were calculated. Together with the additional parameters liver blood flow, amount of liver cells in vivo and in vitro.
as §1

[3] = clinical PhII trials; attributed to blockade of P2X2/3 channels; cited from earlier work
[4] = system: vaginal hyperalgesia; assay: Rat dyspareunia model (visceromotor response to vaginal distension); format: in vivo, Sprague Dawley rats; conditions: 15 mg/kg oral b.i.d. during 2 weeks
Text: The visceromotor response (VMR) to vaginal distension was used in conscious animals as an objective measure of vaginal sensitivity. Briefly, animals in estrus phase were surgically implanted with biopsies of left uterine horn (3×3 mm) around alternate cascade mesenteric arteries that supply the small intestine (4 pieces) and on the wall of the distal colon (2 pieces). To measure VMR response, 2 Teflon-coated wire electrodes were sutured in the external oblique abdominal muscle, and tunneled subcutaneously to be exteriorized at the base of the neck for future access. On the day of VMR assessment, a lubricated small balloon (1 cm length) was inserted into the mid-vaginal canal. […] The electrodes were connected to an amplifier (Animal Bio Amp, ADlnstruments), and the abdominal electromyographic signal was recorded using a data acquisition system (PowerLab, ADlnstruments) for off-line analysis using LabChart version 7. The number of abdominal muscle contractions was counted manually for each 0.1 ml distension step, as an index of vaginal pain. […] All data were expressed as mean±standard deviation (s.d.), for the number (n) of measured rats per group. […] Planned comparison of means (matched-volume versus vehicle) was performed using a Bonferroni post hoc test, provided that a main effect was detected. […]

[5] = molecular target: human P2X3 receptor (Homo sapiens (Human), UniProt P56373); assay: Intracellular calcium measurement (FLIPR, Fluo-4) of antagonist activity at human P2X3 receptor; format: cell-based; conditions: human P2X3, FLIPR Fluo-4 calcium, agonist α,β-Me-ATP at EC80; read-out: hP2X3 IC50
Method: (§2) Intracellular Calcium Measurement to Assess Antagonist Activity at Human P2X3 and Human P2X2/3 Receptors
(§3) A fluorescent imaging plate reader (FLEX/FLIPR station; Molecular Devices) was used to monitor intracellular calcium levels using the calcium-chelating dye Fluo-4 (Molecular Probes). […] Cells expressing purinergic receptors P2X3 (human) or P2X2/3 (human) were plated at a density of 15,000 cells/well in collagen-coated 384-well plates approximately 20 hours before beginning the assay. […] The test compound was added in a volume of 5 μl and allowed to incubate for 30 min at 37° C. The final assay DMSO concentration is 1%.
(§4) The agonist, α,β-Me-ATP, was added in a volume of 20 μl at a concentration representing the EC80 value. The fluorescence was measured for an interval of 90 sec at 2 sec intervals and analyzed based on the increase in peak relative fluorescence units (RFU) compared to the basal fluorescence. Peak fluorescence was used to determine the response to agonist obtained at each concentration of test compound by the following equation: % Response=100*(RFU(test compound)−RFU(control))/(RFU(DMSO)−RFU(control))
(§5) The Examples were tested in triplicates per plate and mean values were plotted in Excel XLFit to determine IC5o values at the human P2X3 and human P2X2/3 receptors, percentage of maximal inhibition and the Hill coefficients.

[6] = molecular target: human P2X2/3 receptor (Homo sapiens (Human), UniProt P56373+Q9UBL9); assay: Intracellular calcium measurement (FLIPR, Fluo-4) of antagonist activity at human P2X2/3 receptor; format: cell-based; conditions: human P2X2/3, FLIPR Fluo-4 calcium, agonist α,β-Me-ATP at EC80; read-out: hP2X2/3 IC50
Method: as §2, §3, §4, §5

Chain of human P2X3 receptor (P56373 whole entry): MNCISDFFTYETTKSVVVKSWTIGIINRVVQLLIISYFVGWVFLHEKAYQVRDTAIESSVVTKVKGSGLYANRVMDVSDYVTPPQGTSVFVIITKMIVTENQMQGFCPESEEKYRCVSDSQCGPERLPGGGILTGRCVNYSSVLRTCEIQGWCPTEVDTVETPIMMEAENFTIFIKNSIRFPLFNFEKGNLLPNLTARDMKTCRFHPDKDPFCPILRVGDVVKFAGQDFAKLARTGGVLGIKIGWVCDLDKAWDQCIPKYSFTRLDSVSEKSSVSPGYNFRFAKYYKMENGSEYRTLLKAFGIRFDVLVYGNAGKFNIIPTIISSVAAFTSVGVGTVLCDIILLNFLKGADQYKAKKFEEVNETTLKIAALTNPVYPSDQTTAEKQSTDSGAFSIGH
Chain of human P2X2/3 receptor (P56373 whole entry): as above
Chain of human P2X2/3 receptor (Q9UBL9 whole entry): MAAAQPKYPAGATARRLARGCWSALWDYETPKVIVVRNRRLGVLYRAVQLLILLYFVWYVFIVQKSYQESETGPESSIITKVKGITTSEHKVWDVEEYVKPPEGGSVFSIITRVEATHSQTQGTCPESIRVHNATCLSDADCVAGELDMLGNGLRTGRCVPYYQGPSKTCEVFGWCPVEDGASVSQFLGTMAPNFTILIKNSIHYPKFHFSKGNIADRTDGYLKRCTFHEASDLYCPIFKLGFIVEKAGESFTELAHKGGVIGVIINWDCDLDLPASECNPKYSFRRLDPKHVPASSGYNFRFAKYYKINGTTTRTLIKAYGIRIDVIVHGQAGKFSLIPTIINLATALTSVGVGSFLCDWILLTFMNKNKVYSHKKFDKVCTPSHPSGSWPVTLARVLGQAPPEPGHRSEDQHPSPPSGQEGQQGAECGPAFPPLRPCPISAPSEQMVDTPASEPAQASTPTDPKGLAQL

Row | SMILES | Human liver microsome Fmax [1] | Rat hepatocyte Fmax [2] | other results
1 | Cc1cnc(-c2cc(OC(C)C(C)O)cc(C(=O)N[C@H](C)c3cnc(C(F)(F)F)nc3)c2)s1 (single isomer, unassigned) [Example 163] | 100% | 53% | 
2 | Cc1cnc(-c2cc(OC(C)C(C)O)cc(C(=O)N[C@H](C)c3ccc(C(F)(F)F)nn3)c2)s1 (single isomer, unassigned) [Example 183] | 74% | 43% | 
3 | Cc1cnc(-c2cc(OC(C)C(C)O)cc(C(=O)N[C@H](C)c3cnc(C(F)(F)F)nc3)c2)s1 (single isomer, unassigned) [Example 339] | 94% | 52% | 
4 | Cc1cnc(-c2cc(OC(C)C(C)O)cc(C(=O)N[C@H](C)c3cnc(C(F)(F)F)nc3)c2)s1 (single isomer, unassigned) [Example 340] | 90% | 64% | 
5 | COc1cc(C(C)C)c(Oc2cnc(N)nc2N)cc1S(N)(=O)=O [AF-219] |  |  | taste disturbances in treated subjects [3]: taste disturbances
6 | Cc1cnc(-c2cc(O[C@@H]3CCOC3)cc(C(=O)N[C@H](C)c3cnc(C(F)(F)F)nc3)c2)s1 [Example 11, 3-(5-Methyl-1,3-thiazol-2-yl)-5-[(3R)-tetrahydrofuran-3-yloxy]-N-{(1R)-1-[2-(trifluoromethyl)pyrimidin-5-yl]ethyl}benzamide] | 57% | 52% | Vaginal hyperalgesia compared to vehicle-treated animals [4]: decreased vaginal hyperalgesia
7 | Cc1cnc(-c2cc(O[C@H]3CCOC3)cc(C(=O)N[C@H](C)c3cnc(C(F)(F)F)nc3)c2)s1 [Example 26, 3-(5-methyl-1,3-thiazol-2-yl)-5-[(3S)-tetrahydrofuran-3-yloxy]-N-{(1R)-1-[2-(trifluoromethyl)pyrimidin-5-yl]ethyl}benzamide] | 67% | 56% | 
8 | CCc1cnc(-c2cc(OC[C@H]3CCCO3)cc(C(=O)N[C@H](C)c3cnc(C)cn3)c2)s1 [Example 277, 3-(5-ethyl-1,3-thiazol-2-yl)-N-[(1R)-1-(5-methypyrazin-2-yl)ethyl]-5-[(3S)-tetrahydrofuran-3-ylmethoxy]benzamide] |  |  | IC50 [5]: 6 nM; IC50 [6]: 96 nM
9 | CCc1cnc(-c2cc(OC[C@H]3CN(C)CCO3)cc(C(=O)N[C@H](C)c3ccc(C(F)(F)F)nn3)c2)s1 [Example 419, 3-(5-ethyl-1,3-thiazol-2-yl)-5-{[(2R)-4-methyl-morpholin-2-yl]methoxy}-N-{(1R)-1-[6-(trifluoromethyl)pyridazin-3-yl]ethyl} benzamide] | 74% | 51% | 
